According to patent US20250136619A1, “HETEROBIFUNCTIONAL COMPOUNDS AND THEIR USE IN TREATING DISEASE” (HALDA THERAPEUTICS OPCO, INC., priority 2021, published 2025):

What was measured:
KIF11 = KIF11 (Homo sapiens (Human), UniProt P52732); experiment: Enzyme-coupled ATPase assay for inhibition of KIF11; assay type: biochemical; conditions: KIF11 ATPase rate, 1 mM ATP
Protocol: The ATPase rate for Kif11 was monitored using an enzyme-coupled assay. Porcine brain microtubules (Cat #MT002) were purchased from Cytoskeleton (Denver, CO) and polymerized as per manufacturer's instructions and stored at 1 mg/ml at −80° C. GST-tagged Kif11/Eg5 (Cat #EG01-XL) and the Kinesin ELIPA Biochem Kit (Cat #BK060) was also purchased from Cytoskeleton. Taxol, microtubules, 7-methylthioguanosine (MESG), and purine nucleoside phosphorylase (PNP) were added to final concentrations of […], 0.05 mg/mL, […], 1U/m, 1 mM in EPLIA Reaction Buffer and allowed to incubate at room temperature for 15 minutes under rocking. Kif11 was then added at a final concentration of […] and allowed to incubate at room temperature for an additional 15 minutes. Master mix ([…]) was added to a black 384-well plate (Corning 3575), to which […] of DMSO or compound were added to appropriate wells. Plates were incubated at room temperature for 2 hours. ATPase reactions were initiated by addition of 1 mM ATP and monitored by OD340 every 1 minute over the course of 2 hours. The rate of the reaction was taken from the linear part of the resulting curve. IC50 was determined by plotting inhibitor concentration v. ATPase rate.

BRD4-BD2 = BRD4-BD2 (Homo sapiens (Human), UniProt O60885); experiment: bromoKdELECT assay for binding affinity to BRD4-BD2
Protocol: (§1) Compounds were tested using a bromoKdELECT assay. T7 phage strains displaying bromodomains were grown in parallel in 24-well blocks in an E. coli host derived from the BL21 strain. E. coli were grown to log-phase and infected with T7 phage from a frozen stock (multiplicity of infection=0.4) and incubated with shaking at 32° C. until lysis (90-150 minutes). The lysates were centrifuged (5,000×g) and filtered (0.2 μm) to remove cell debris. Streptavidin-coated magnetic beads were treated with biotinylated small molecule or acetylated peptide ligands for 30 minutes at room temperature to generate affinity resins for bromodomain assays. The liganded beads were blocked with excess biotin and washed with blocking buffer (SeaBlock (Pierce), 1% BSA, 0.05% Tween 20, 1 mM DTT) to remove unbound ligand and to reduce nonspecific phage binding. Binding reactions were assembled by combining bromodomains, liganded affinity beads, and test compounds in 1×binding buffer (17% SeaBlock, 0.33×PBS, 0.04% Tween 20, 0.02% BSA, 0.004% Sodium azide, 7.4 mM DTT). Test compounds were prepared as 1000X stocks in 100% DMSO. Kds were determined using an 11-point 3-fold compound dilution series with one DMSO control point. All compounds for Kd measurements are distributed by acoustic transfer (non-contact dispensing) in 100% DMSO. The compounds were then diluted directly into the assays such that the final concentration of DMSO was 0.09%. All reactions performed in polypropylene 384-well plates. Each was a final volume of 0.02 ml. The assay plates were incubated at room temperature with shaking for 1 hour and the affinity beads were washed with wash buffer (1×PBS, 0.05% Tween 20). The beads were then resuspended in elution buffer (1×PBS, 0.05% Tween 20, 2 μM non-biotinylated affinity ligand) and incubated at room temperature with shaking for 30 minutes. The bromodomain concentration in the eluates was measured by qPCR.

BRD4-BD1 = BRD4-BD1 (Homo sapiens (Human), UniProt O60885); experiment: bromoKdELECT assay for binding affinity to BRD4-BD1
Protocol: as §1

BTK = BTK (Homo sapiens (Human), UniProt Q06187); experiment: KdELECT assay for binding affinity to BTK
Method in brief: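 Competition binding of test compound against bead-immobilized biotinylated ligand; kinase as T7 phage fusion or HEK-293-expressed DNA-tagged protein. 11-point 3-fold dilution, 0.9% DMSO final, 1 h room temperature with shaking. Bound kinase eluted with 0.5 μM non-biotinylated ligand and quantified by qPCR; Kd derived.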

CDK1 = CDK1 (Homo sapiens (Human), UniProt P06493); experiment: KdELECT assay for binding affinity to CDK1
Protocol: Compounds were tested using a KdELECT assay. Kinase-tagged T7 phage strains were prepared in an E. coli host derived from the BL21 strain. E. coli were grown to log-phase and infected with T7 phage and incubated with shaking at 32° C. until lysis. The lysates were centrifuged and filtered to remove cell debris. The remaining kinases were produced in HEK-293 cells and subsequently tagged with DNA for qPCR detection. Streptavidin-coated magnetic beads were treated with biotinylated small molecule ligands for 30 minutes at room temperature to generate affinity resins for kinase assays. The liganded beads were blocked with excess biotin and washed with blocking buffer (SeaBlock (Pierce), 1% BSA, 0.05% Tween 20, 1 mM DTT) to remove unbound ligand and to reduce non-specific binding. Binding reactions were assembled by combining kinases, liganded affinity beads, and test compounds in 1×binding buffer (20% SeaBlock, 0.17×PBS, 0.05% Tween 20, 6 mM DTT). Test compounds were prepared as 111X stocks in 100% DMSO. Kd values were determined using an 11-point 3-fold compound dilution series with three DMSO control points. All compounds for Kd measurements are distributed by acoustic transfer (non-contact dispensing) in 100% DMSO. The compounds were then diluted directly into the assays such that the final concentration of DMSO was 0.9%. All reactions performed in polypropylene 384-well plate. Each was a final volume of 0.02 mL. The assay plates were incubated at room temperature with shaking for 1 hour and the affinity beads were washed with wash buffer (1×PBS, 0.05% Tween 20). The beads were then re-suspended in elution buffer (1×PBS, 0.05% Tween 20, 0.5 μM nonbiotinylated affinity ligand) and incubated at room temperature with shaking for 30 minutes. The kinase concentration in the eluates was measured by qPCR.

KIF11, sequence (P52732 1-368): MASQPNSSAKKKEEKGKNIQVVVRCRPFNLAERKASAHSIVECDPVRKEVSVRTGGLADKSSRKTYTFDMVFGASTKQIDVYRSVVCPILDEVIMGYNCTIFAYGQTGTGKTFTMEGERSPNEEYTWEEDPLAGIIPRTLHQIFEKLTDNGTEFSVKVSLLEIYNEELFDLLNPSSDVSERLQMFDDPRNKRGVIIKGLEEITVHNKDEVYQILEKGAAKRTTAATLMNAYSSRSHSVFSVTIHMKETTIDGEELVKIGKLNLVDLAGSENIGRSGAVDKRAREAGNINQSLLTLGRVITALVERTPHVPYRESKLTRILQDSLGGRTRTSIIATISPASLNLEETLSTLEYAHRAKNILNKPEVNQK
CDK1, sequence (P06493 whole entry): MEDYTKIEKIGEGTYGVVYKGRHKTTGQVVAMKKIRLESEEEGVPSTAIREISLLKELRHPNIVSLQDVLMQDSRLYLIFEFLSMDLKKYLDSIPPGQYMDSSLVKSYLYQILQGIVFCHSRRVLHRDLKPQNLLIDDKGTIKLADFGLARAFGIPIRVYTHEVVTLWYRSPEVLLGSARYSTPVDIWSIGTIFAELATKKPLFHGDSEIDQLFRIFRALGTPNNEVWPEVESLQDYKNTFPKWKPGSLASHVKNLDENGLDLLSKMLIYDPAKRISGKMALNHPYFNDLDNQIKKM
BTK, sequence (Q06187 whole entry, the tested form may be a part): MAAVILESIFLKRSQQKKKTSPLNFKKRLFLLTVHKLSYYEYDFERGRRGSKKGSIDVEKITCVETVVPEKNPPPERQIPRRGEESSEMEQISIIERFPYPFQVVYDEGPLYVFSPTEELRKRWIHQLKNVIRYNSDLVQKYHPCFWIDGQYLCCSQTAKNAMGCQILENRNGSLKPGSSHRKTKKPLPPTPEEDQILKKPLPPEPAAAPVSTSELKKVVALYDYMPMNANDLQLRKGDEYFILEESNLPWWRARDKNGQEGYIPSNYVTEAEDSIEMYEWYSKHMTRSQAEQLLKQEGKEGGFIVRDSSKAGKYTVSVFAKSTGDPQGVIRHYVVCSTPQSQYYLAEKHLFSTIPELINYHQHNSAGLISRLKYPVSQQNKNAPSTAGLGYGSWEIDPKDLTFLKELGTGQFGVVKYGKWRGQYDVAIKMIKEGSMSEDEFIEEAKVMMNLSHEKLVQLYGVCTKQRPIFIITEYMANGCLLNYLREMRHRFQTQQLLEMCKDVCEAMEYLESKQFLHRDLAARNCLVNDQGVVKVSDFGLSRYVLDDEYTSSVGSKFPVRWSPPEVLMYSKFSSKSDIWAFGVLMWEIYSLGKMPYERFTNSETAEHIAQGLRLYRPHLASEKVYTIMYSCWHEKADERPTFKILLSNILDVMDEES

IC50 (KIF11)	Kd (BRD4-BD2)	Kd (BRD4-BD1)	Kd (BTK)	Kd (CDK1)	SMILES
< 50 nM					CN(C/C=C/C(=O)N1CCC[C@@H](n2nc(-c3ccc(Oc4ccccc4)cc3)c3c(N)ncnc32)C1)CCOCCOCCOCCOCCOCCOCCOCCOCCON(C)C(=O)N1N=C(c2cc(F)ccc2F)SC1(CCCN)c1ccccc1 (stereo partly drawn) [Compound I-54]
50 to 500 nM					CN(OCCOCCOCCOCCOCCOC/C=C/C(=O)N1CCC[C@@H](n2nc(-c3ccc(Oc4ccccc4)cc3)c3c(N)ncnc32)C1)C(=O)N1N=C(c2cc(F)ccc2F)SC1(CCCN)c1ccccc1 (stereo partly drawn) [Compound I-49]
< 50 nM					CN(C/C=C/C(=O)N1CCC[C@@H](n2nc(-c3ccc(Oc4ccccc4)cc3)c3c(N)ncnc32)C1)CCOCCOCCOCCOCCON(C)C(=O)N1N=C(c2cc(F)ccc2F)SC1(CCCN)c1ccccc1 (stereo partly drawn) [Compound I-50]
	< 50 nM	< 50 nM	< 50 nM		Cc1sc2c(c1C)C(c1ccc(Cl)cc1)=N[C@@H](CC(=O)NCCCN1CCN(CCCN(C)C/C=C/C(=O)N3CCC[C@@H](n4nc(-c5ccc(Oc6ccccc6)cc5)c5c(N)ncnc54)C3)CC1)c1nnc(C)n1-2 [Compound I-29, N-[3-[4-[3-[[(E)-4-[(3R)-3-[4-amino-3-(4-phenoxyphenyl)pyrazolo[3,4-d]pyrimidin-1-yl]-1-piperidyl]-4-oxo-but-2-enyl]-methyl-amino]propyl]piperazin-1-yl]propyl]-2-[(9S)-7-(4-chlorophenyl)-4,5, 13-trimethyl-3-thia-1,8, 11,12-tetrazatricyclo[8.3.0.0^2,6]trideca-2 (6),4,7,10,12-pentaen-9-yl]acetamide]
			< 50 nM	< 50 nM	CN(C/C=C/C(=O)N1CCC[C@@H](n2nc(-c3ccc(Oc4ccccc4)cc3)c3c(N)ncnc32)C1)CCCN1CCN(CCCNS(=O)(=O)c2ccc(Nc3ncc(Br)c(Nc4cccc(F)c4C(N)=O)n3)cc2)CC1 [Compound I-18, 2-[[2-[4-[3-[4-[3-[[(E)-4-[(3R)-3-[4-amino-3-(4-phenoxyphenyl)pyrazolo[3,4-d]pyrimidin-1-yl]-1-piperidyl]-4-oxo-but-2-enyl]-methyl-amino]propyl]piperazin-1-yl]propylsulfamoyl]anilino]-5-bromo-pyrimidin-4-yl]amino]-6-fluoro-benzamide]
	500 to 2500 nM	> 2500 nM	500 to 2500 nM		Cc1sc2c(c1C)C(c1ccc(Cl)cc1)=N[C@@H](CC(=O)NCCCCCCCC/C=C/C(=O)N1CCC[C@@H](n3nc(-c4ccc(Oc5ccccc5)cc4)c4c(N)ncnc43)C1)c1nnc(C)n1-2 [Compound I-28, N—[(E)-11-[(3R)-3-[4-amino-3-(4-phenoxyphenyl)pyrazolo[3,4-d]pyrimidin-1-yl]-1-piperidyl]-11-oxo-undec-9-enyl]-2-[(9S)-7-(4-chlorophenyl)-4,5,13-trimethyl-3-thia-1,8,11,12-tetrazatricyclo[8.3.0.0^2,6]trideca-2 (6),4,7,10,12-pentaen-9-yl]acetamide]
			50 to 500 nM	500 to 2500 nM	NC(=O)c1c(F)cccc1Nc1nc(Nc2ccc(S(=O)(=O)NCCOCCOC/C=C/C(=O)N3CCC[C@@H](n4nc(-c5ccc(Oc6ccccc6)cc5)c5c(N)ncnc54)C3)cc2)ncc1Br [Compound I-13, 2-[[2-[4-[2-[2-[(E)-4-[(3R)-3-[4-amino-3-(4-phenoxyphenyl)pyrazolo[3,4-d]pyrimidin-1-yl]-1-piperidyl]-4-oxo-but-2-enoxy]ethoxy]ethylsulfamoyl]anilino]-5-bromo-pyrimidin-4-yl]amino]-6-fluoro-benzamide]
	< 50 nM	50 to 500 nM	< 50 nM		Cc1sc2c(c1C)C(c1ccc(Cl)cc1)=N[C@@H](CC(=O)NCCOCCOCCOCCOCCOCCOC/C=C/C(=O)N1CCC[C@@H](n3nc(-c4ccc(Oc5ccccc5)cc4)c4c(N)ncnc43)C1)c1nnc(C)n1-2 [Compound I-26, N-[2-[2-[2-[2-[2-[2-[(E)-4-[(3R)-3-[4-amino-3-(4-phenoxyphenyl)pyrazolo[3,4-d]pyrimidin-1-yl]-1-piperidyl]-4-oxo-but-2-enoxy]ethoxy]ethoxy]ethoxy]ethoxy]ethoxy]ethyl]-2-[(9S)-7-(4-chlorophenyl)-4,5, 13-trimethyl-3-thia-1,8, 11,12-tetrazatricyclo[8.3.0.0^2,6]trideca-2 (6),4,7,10, 12-pentaen-9-yl]acetamide]
	50 to 500 nM	500 to 2500 nM			Cc1sc2c(c1C)C(c1ccc(Cl)cc1)=N[C@@H](CC(=O)NCCOCCOCCOc1ccc(C(=O)NC3C(C)(C)C(Oc4ccc(C#N)c(Cl)c4)C3(C)C)cc1)c1nnc(C)n1-2 (stereo partly drawn) [Compound I-32]
				> 2500 nM	CCc1cnn2c(NCc3ccc(OCCOCCOCCOCCOCCOCCOCCOCCOCCOC/C=C/C(=O)N4CCC[C@@H](n5nc(-c6ccc(Oc7ccccc7)cc6)c6c(N)ncnc65)C4)nc3)cc(N3CCCC[C@H]3CCO)nc12 [Compound I-47]
			< 50 nM	> 2500 nM	CCc1cnn2c(NCc3ccc(OCCOCCOCCOCCOCCN(C)C/C=C/C(=O)N4CCC[C@@H](n5nc(-c6ccc(Oc7ccccc7)cc6)c6c(N)ncnc65)C4)nc3)cc(N3CCCC[C@H]3CCO)nc12 [Compound I-43]
			< 50 nM	50 to 500 nM	NC(=O)c1c(F)cccc1Nc1nc(Nc2ccc(S(=O)(=O)NCCOCCOCCOCCOCCOCCOC/C=C/C(=O)N3CCC[C@@H](n4nc(-c5ccc(Oc6ccccc6)cc5)c5c(N)ncnc54)C3)cc2)ncc1Br [Compound I-15]
< 50 nM			< 50 nM		CN(C/C=C/C(=O)N1CCC[C@@H](n2nc(-c3ccc(Oc4ccccc4)cc3)c3c(N)ncnc32)C1)CCOCCOCCOCCOCCOCCOCCON(C)C(=O)N1N=C(c2cc(F)ccc2F)SC1(CCCN)c1ccccc1 (stereo partly drawn) [Compound I-52]
50 to 500 nM			< 50 nM		CN(OCCOCCOCCOCCOCCOCCOCCOCCOCCOC/C=C/C(=O)N1CCC[C@@H](n2nc(-c3ccc(Oc4ccccc4)cc3)c3c(N)ncnc32)C1)C(=O)N1N=C(c2cc(F)ccc2F)SC1(CCCN)c1ccccc1 (stereo partly drawn) [Compound I-53]
	< 50 nM	50 to 500 nM	< 50 nM		Cc1sc2c(c1C)C(c1ccc(Cl)cc1)=N[C@@H](CC(=O)NCCOCCOC/C=C/C(=O)N1CCC[C@@H](n3nc(-c4ccc(Oc5ccccc5)cc4)c4c(N)ncnc43)C1)c1nnc(C)n1-2 [Compound I-24, N-[2-[2-[(E)-4-[(3R)-3-[4-amino-3-(4-phenoxyphenyl)pyrazolo[3,4-d]pyrimidin-1-yl]-1-piperidyl]-4-oxo-but-2-enoxy]ethoxy]ethyl]-2-[(9S)-7-(4-chlorophenyl)-4,5,13-trimethyl-3-thia-1,8,11,12-tetrazatricyclo[8.3.0.02.6]trideca-2 (6),4,7,10,12-pentaen-9-yl]acetamide]
